# Tests used:
# [1] = system: MCF7/Dox xenograft tumors; assay: Independent comparative xenograft study of C1-C4; assay type: in vivo, mice; conditions: n=5 per group, FIG. 23C
# Excerpt: Tumors are shown (right). […] C1 injection led to a 58% reduction in tumor growth, which was statistically greater than the reductions seen in the case of C2 (16%), C3 (9%), C4 (6%) and DMSO (0%) tested under otherwise identical conditions.
# MCF7 cells = assay: Colony formation assay; assay type: cell-based, human; conditions: 10 days
# Experimental: (§1) Cells were seeded in 24 well plates at 2×10^5 cells per well and were allowed to adhere for at least 24 h, growth medium was replaced with medium containing C1 or its analogues at the indicated concentrations and times, and cell viability was assessed via the WST-1 assay (Roche Diagnostics, Laval, QC, Canada). For the colony formation assay, cells were seeded in 6-well plates. After 24 h, cells were maintained in the presence of each probe or vehicle dimethyl sulfoxide (DMSO) for 10 days. Colonies were fixed with methanol for 10 min and stained with 0.05% crystal violet in 20% ethanol.
# HepG2 cells [2] = assay: Confocal intracellular localization with MitoTracker; assay type: cell-based, human; conditions: HepG2, 5 μM, 24 hr
# Experimental: (§2) HepG2 cells treated with each compound (5 μM, 24 hr) were co-stained with the mitochondrial marker MitoTracker (green). Boxed regions show co-localization of the test compounds and probe within the mitochondria. […] Experiments were carried out in triplicate and the data shown represent means±SD. **p<0.01. […] HepG2 cells were incubated with BNPP (100 μM) for 2 hr prior to C1 treatment. **p<0.01. […] Cleaved caspase-3 and PARP-1 levels were examined to assess apoptosis induction. C, cleaved.
# Cells were seeded on glass chamber slides (Nalgene Nunc) followed by probe treatment. After 48 h, the cells were fixed with 4% formaldehyde, and blocked with 2% bovine serum albumin-PBS for 30 min. The mitochondria were stained using MitoTracker™ Green FM (Invitrogen, USA) for 30 min. Fluorescent images were obtained using a confocal laser scanning microscope (Carl Zeiss MicroImaging, Inc., Germany).
# HepG2 cells [3] = assay: WST cell viability assay; assay type: cell-based, human
# Experimental: as §2, §1
# MCF7 and MCF7/Dox cells = assay: Intracellular accumulation, fluorescence assay; assay type: cell-based, human; conditions: up to 12 hr after treatment
# Experimental: (§3) Fluorescence intensities were measured with SpectraMAX 13. Data represent means±SD. **p<0.01. […] Data represent means±SD. **[…]. […] Data represent the mean±SD (n=3 experimental replicates). *p<0.05, **p<0.01. […] MCF7/Dox cells were treated with C1 or C3 as indicated, and the cytosolic (C) and mitochondrial (M) fractions were subjected to immunoblot assay. COX-IV and tubulin were used as markers for the mitochondria and cytosol fractions, respectively.
# Mito-tracker (green) was utilized to show the mitochondria;
# (§4) To analyze the cellular fluorescence levels upon compound treatment, cells were seeded in plates 1 day before treatment with the compounds. Cells were then treated with each compound for the indicated dose or time course. After the experiment, cells were washed with ice-cold PBS, trypsinized, and centrifuged. The cell pellet was re-suspended in 300 μL of PBS and then analyzed using a multiplate reader (SpectraMAX I3x). The results were normalized according to the number of cells.
# [4] = system: cancer cells (A549 and HepG2), normal cells (NHDF and IMR90); assay: Cellular uptake of compounds in normal and cancer cells; assay type: cell-based, human; conditions: 5 μM, 6 h, A549, HepG2 vs NHDF
# Experimental: Cells were treated with 5 μM of each compound for 6 h. Fluorescence intensities were determined using SpectraMAX 13;
# as §4
# MCF7/Dox cells = assay: Cytochrome c release from mitochondria, immunoblot; assay type: cell-based, human
# Experimental: as §3
# Immunoblot analyses were performed using antibodies specific for phosphorylated serine 293 PDH-EI (ab92696), p21^Waf1 (sc-397), cleaved PARP (5625), cleaved caspase-3 (9664), COX-IV (4850), and Cytochrome c (4280). They were purchased from Abcam (Cambridge, UK), Santa Cruz Biotechnology (Texas, USA) or Cell Signaling Technology (Massachusetts, USA). Anti-tubulin antibodies were obtained from Sigma-Aldrich (St. Louis, USA). Briefly, cells were washed twice in ice-cold PBS and lysed in a radioimmunoprecipitation assay buffer containing 50 mM Tris/HCl (pH 7.5), 150 mM NaCl, 0.1% sodium dodecyl sulfate (SDS), 1% Triton X-100, 1% sodium deoxycholate, and protease inhibitor mixture. After sonification, the lysate was centrifuged, and the supernatant was recovered and loaded onto a 12% SDS-polyacrylamide gel for electrophoresis. […]
# [5] = system: p21^Waf1 and phosphorylated PDH levels; assay: Immunoblot assay of p21Waf1 and phosphorylated PDH; assay type: cell-based, human
# Experimental: as §2
# Immunoblot analyses were performed using antibodies specific for phosphorylated serine 293 PDH-EI (ab92696), p21^Waf1 (sc-397), cleaved PARP (5625), cleaved caspase-3 (9664), COX-IV (4850), and Cytochrome c (4280). They were purchased from Abcam (Cambridge, UK), Santa Cruz Biotechnology (Texas, USA) or Cell Signaling Technology (Massachusetts, USA). Anti-tubulin antibodies were obtained from Sigma-Aldrich (St. Louis, USA). Briefly, cells were washed twice in ice-cold PBS and lysed in a radioimmunoprecipitation assay buffer containing 50 mM Tris/HCl (pH 7.5), 150 mM NaCl, 0.1% sodium dodecyl sulfate (SDS), 1% Triton X-100, 1% sodium deoxycholate, and protease inhibitor mixture. After sonification, the lysate was centrifuged, and the supernatant was recovered and loaded onto a 12% SDS-polyacrylamide gel for electrophoresis.
smiles,measurement,setting,value
C#CCC(OC(=O)N[C@H]1C[C@H](O[C@H]2C[C@](O)(C(=O)CO)Cc3c(O)c4c(c(O)c32)C(=O)c2c(OC)cccc2C4=O)O[C@@H](C)[C@H]1O)c1ccc(NC(=O)C(Cl)Cl)cc1 (stereo partly drawn) [C2],reduction in tumor growth,[1],16%
same,colony-forming ability,MCF7 cells,showed this effect only in the case of the MCF7 cells
same,intracellular (mitochondrial) localization,HepG2 cells [2],no detectable mitochondrial localization
same,IC50,"HepG2 cells [3]; HepG2 cells, WST assay, read-out: IC50 (cytotoxicity)",10.6 ± 1.03 µM
same,cell death in cell-survival assays,HepG2 cells [3]; compared with C3-C6,greater cell death in a dose-dependent manner
same,intracellular accumulation in MCF7/Dox versus MCF7,MCF7 and MCF7/Dox cells,substantially lower level in MCF7/Dox than in MCF7
same,tumor cell selectivity of cellular uptake,[4],no cellular selectivity
COc1cccc2c1C(=O)c1c(O)c3c(c(O)c1C2=O)C[C@@](O)(C(=O)CO)C[C@@H]3O[C@H]1C[C@H](NC(=O)OC(Cc2cn(CCCCCC[P+](c3ccccc3)(c3ccccc3)c3ccccc3)nn2)c2ccc(NC(=O)C(C)C)cc2)[C@H](O)[C@H](C)O1 (stereo partly drawn) [C3],reduction in tumor growth,[1],9%
same,"cytochrome c release, cleavage of caspase-3 and PARP-1, decrease in cell viability",MCF7/Dox cells,fails to evoke these effects
same,intracellular (mitochondrial) localization,HepG2 cells [2],located predominantly within the mitochondria
same,effect on p21^Waf1 and phosphorylated PDH levels,[5],no effect on p21^Waf1 or PDH phosphorylation
same,tumor cell selectivity of cellular uptake,[4],taken up specifically by cancer cells
C#CCC(OC(=O)N[C@H]1C[C@H](O[C@H]2C[C@](O)(C(=O)CO)Cc3c(O)c4c(c(O)c32)C(=O)c2c(OC)cccc2C4=O)O[C@@H](C)[C@H]1O)c1ccc(NC(=O)C(C)C)cc1 (stereo partly drawn) [C4],reduction in tumor growth,[1],6%
same,intracellular (mitochondrial) localization,HepG2 cells [2],no detectable mitochondrial localization
same,tumor cell selectivity of cellular uptake,[4],no cellular selectivity

# From patent publication US11241501B2, “Anticancer prodrug for overcoming drug resistance” (Korea University Research and Business Foundation, priority 2018, dated 2022)
